Experimental data as given in patent US20050153288A1, “Methods for identifying gibberellin responsive genes using cultured vegetable cells” (priority 2001, published 2005).
Entries after “also recorded” stand apart in the source; their conditions may differ. Like-named read-outs stand apart in the source and are kept apart here.

How the values were obtained:
[1] = tested on: CIGR1 gene and CIGR2 gene; test: Induction of CIGR1 and CIGR2 gene expression by gibberellin in cultured rice cells (Northern blot hybridization); format: cell-based, rice (Oryza sativa cv. Nipponbare); conditions: for induction of CIGR1 and CIGR2 gene expression by gibberellin species: cultured rice cells treated for ten minutes
Experimental: (§1) (1) Rice cultured cells: The cultured cells of rice were induced from germinating rice seeds (Oryza sativa cv. Nipponbare) on an N6 agar plate containing 1 ppm 2,4-D (2,4-dichlorophenoxyacetic acid). The cells were successively cultured in liquid N6 medium as follows: Once a week, cells of about 1 ml in volume were transferred to 150 ml of N6 medium. Every two weeks, cell clusters were passed through a 20-mesh metal screen to reduce their size. Cells which had been transferred to 30 ml of medium with no screen treatment, and then shake-cultured for four to six days, were used for extraction of RNA for Northern blotting.
(§2) (2) RNA extraction: The extraction of total RNA from cultured cells and green leaves of rice was carried out according to the phenol-SDS method. A Polytron homogenizer was used to homogenize living tissue in the presence of about tenfold or more volume to tissue-volume of phenol (about 90% saturated with water), and a volume of buffer solution (50 mM Tris-HCl pH 9.0, 1% SDS, 50 mM NaCl) equal to this phenol volume. The aqueous phase obtained by centrifugation was then repeatedly extracted with phenol. Total nucleic acid was precipitated by adding 0.6 volume of isopropanol to the extract and stirring the mixture. After dissolving the precipitate in water, a 0.25 volume of 10M LiCl was added, and the mixture was cooled on ice. High molecular weight RNA was collected by centrifugation, washed with 70% ethanol, and then dissolved in a small volume of water to be used as an RNA sample.
[…] Gibberellin (GA3 dissolved in ethanol) was added to make up each final concentration, cells were cultured with shaking for predetermined periods, and then used for RNA extraction. Nipponbare plants grown for three weeks after seeding were sprayed with gibberellin. The third and fourth leaves were collected at certain intervals, and total RNA was extracted. Elicitor treatment was carried out by directly adding aqueous elicitor solution to cultured cells of rice.
(4) Hybridization: RNA for Northern hybridization was denatured using the glyoxal method. 2.7 μl of glyoxal (final concentration, 1M), 1.6 μl of sodium phosphate (pH 7.0, final concentration, 10 mM), and 8 μl of dimethylsulfoxide (final concentration, 50%) were added to 10 μg of total RNA (3.7 μl). The mixture was kept at 50° C. for one hour and then subjected to electrophoresis in 1.4% agarose (10 mM sodium phosphate, pH 7.0). After electrophoresis, RNA was blotted onto a nylon membrane (Biodyne A). The RNA was fixed onto the membrane by treatment for two hours at 80° C. Hybridization was carried out in a mixture of 50% formamide, 0.1% SDS, 0.1 mg/ml salmon sperm DNA, 5×SSPE (0.9 M NaCl, 50 mM sodium phosphate, 5 mM EDTA, pH 7.4), and 5× Denhardt's solution (0.1% bovine serum albumin, 0.1% Ficoll, 0.1% polyvinylpyrrolidone) at 42° C. for one day. The membrane was then washed with 0.1×SSC (15 mM NaCl, 1.5 mM sodium citrate) three times for five minutes each time at room temperature, and twice for 30 minutes each time at 65° C., and then exposed on x-ray film.

[2] = tested on: CHRC, a carotenoid-associated protein in the chromoplasts of cucumber petals; conditions: cited from earlier work
[3] = tested on: CIGR1 gene and CIGR2 gene; test: Expression of CIGR1 and CIGR2 genes in green leaves of rice after GA3 spraying; format: in vivo, rice (Nipponbare); conditions: third and fourth leaves, three weeks after seeding, sprayed with GA3 (50 μM)
Experimental: as §2
(§3) (3) A method for gibberellin treatment of cultured cells and green leaves: The cultured cells were pre-washed several times with 2,4-D-free N6 medium, and then suspended in the same medium and shaken for two hours at 25° C. […]
In the presence of auxins, cultured plant cells are thought to be in an undifferentiated state. […] Thus, the responses of these two genes to gibberellin were analyzed in the green leaves of rice. […]

[4] = tested on: elicitor-responsive genes; conditions: K-252a pretreatment; cited from earlier work
[5] = tested on: α-amylase; conditions: aleurone layer of wheat, cited from earlier work
[6] = tested on: CIGR1 gene and CIGR2 gene; test: Effect of protein kinase/phosphatase inhibitors on GA3 induction of CIGR1 and CIGR2 genes in cultured rice cells; format: cell-based; conditions: inhibitor added ten minutes before treatment; okadaic acid 1 μM, lavendustin A 30 μM, K-252a 20 μM
Experimental: (§4) FIG. 11 depicts photographs representing the effects of protein kinase inhibitors on elicitor response and gibberellin response. The following compounds were added ten minutes before treatment with chitin heptamer (GN7) or gibberellin (GA3). (A): the positive elicitor response control; (B) : okadaic acid (1 μM); (C) : lavendustin A (30 μM); (D) : K-252a (20 μM).
as §1, §2, §3

[7] = tested on: CIGR1 gene and CIGR2 gene; test: Effect of protein kinase/phosphatase inhibitors on chitin heptamer induction of CIGR1 and CIGR2 genes in cultured rice cells; format: cell-based; conditions: inhibitor added ten minutes before treatment; okadaic acid 1 μM, lavendustin A 30 μM, K-252a 20 μM
Experimental: as §4, §1, §2, §3

[8] = tested on: CIGR1 gene and CIGR2 gene; test: Elicitor (chitin/chitosan oligomer) induction of CIGR1 and CIGR2 gene expression in cultured rice cells (Northern blot hybridization); format: cell-based, rice (Oryza sativa cv. Nipponbare)
Experimental: as §1, §2
(3) A method for gibberellin treatment of cultured cells and green leaves: The cultured cells were pre-washed several times with 2,4-D-free N6 medium, and then suspended in the same medium and shaken for two hours at 25° C. Gibberellin (GA3 dissolved in ethanol) was added to make up each final concentration, cells were cultured with shaking for predetermined periods, and then used for RNA extraction. Nipponbare plants grown for three weeks after seeding were sprayed with gibberellin. The third and fourth leaves were collected at certain intervals, and total RNA was extracted. […]

[9] = ten minutes of GA3 treatment, 2,4-D-free medium

For `C=C1C[C@]23C[C@@]1(O)CC[C@H]2[C@@]12CC[C@H](O)[C@@](C)(C(=O)O1)[C@H]2[C@@H]3C(=O)O` [GA1], the “induction of CIGR1 and CIGR2 gene expression by gibberellin species” value (from here on “induction … by gibberellin species”) [1] was “induced the expression of both genes”.

For `C=C1C[C@]23C[C@@]1(O)CC[C@H]2[C@@]12C=C[C@H](O)[C@@](C)(C(=O)O1)[C@H]2[C@@H]3C(=O)O` [GA3], the “GA3 concentration required for induction of CHRC” value [2] is listed as “at least 10^−7 M”, the “GA3 concentration up to which CHRC expression level increased approximately linearly” value [2] is listed as “up to 10^−4 M” and the “expression of CIGR1 and CIGR2 genes over time after GA3 treatment” value ([1]; cells pre-washed with 2,4-D-free medium, two hours of pre-culture in the same medium) is listed as “Transient expression with a maximum at ten minutes after treatment”. The “induction … by gibberellin species” value [1] was “induced the expression of both genes”, the “change in gene expression (CIGR1, CIGR2) after GA3 treatment” value ([1]; suspension-cultured cells in medium comprising 2,4-D, observed for three hours after treatment) was “no significant change in expression amount was found; also recorded: No change in gene expression was detected” and the “GA3 concentration at which induction of expression of both genes began to appear” value [1, 9] was 10^−6 M. For the same molecule, the “GA3 concentration at which induction reached near saturation” value [1, 9] was ~10^−4 M and the “time of maximum transient expression of both genes after spraying” value [3] was 30 min.

In the case of `C=C1C[C@]23C[C@H]1CC[C@H]2[C@@]12CC[C@H](O)[C@@](C)(C(=O)O1)[C@H]2[C@@H]3C(=O)O` [GA4], the “induction … by gibberellin species” value [1] is reported as “induced the expression of both genes”.

For `C=C1C[C@]23C[C@H]1CC[C@H]2[C@]1(C(=O)O)CC[C@H](O)[C@@](C)(C(=O)O)[C@H]1[C@@H]3C(=O)O` [GA13], the “induction … by gibberellin species” value [1] was “only active type gibberellins induced the expression of both genes”.

In the case of `C=C1C[C@]23C[C@@]1(O)CC[C@H]2[C@]1(C(=O)O)CCC[C@@](C)(C(=O)O)[C@H]1[C@@H]3C(=O)O` [GA17], the “induction … by gibberellin species” value [1] is reported as “only active type gibberellins induced the expression of both genes”.

In the case of `COC(=O)[C@@]1(O)C[C@H]2O[C@]1(C)n1c3ccccc3c3c4c(c5c6ccccc6n2c5c31)C(=O)NC4` [K-252-A], the “inhibition of induction of expression of elicitor-responsive genes” value [4] is listed as “strongly inhibited”, the “inhibition of gibberellin's induction of α-amylase” value ([5]; listed as K252a) is listed as “hardly inhibited induction” and the “inhibition of induction of both genes by GA3” value (“inhibition … by GA3” for short) [6] is listed as “almost completely inhibited”. For the same molecule, the “inhibition of induction of both genes by chitin heptamer” value (from here on “inhibition … by chitin heptamer”) [7] was “almost completely inhibited”.

With `O=C(O)c1cc(N(Cc2ccccc2O)Cc2cc(O)ccc2O)ccc1O` [Lavendustin A] the “inhibition … by GA3” value [6] was “inhibited induction by GA3 almost completely” and the “inhibition … by chitin heptamer” value [7] was “hardly inhibited”.

For `CC(=O)N[C@H]1[C@H](O[C@@H]([C@H](O)[C@H](C=O)NC(C)=O)[C@H](O)CO)O[C@H](CO)[C@@H](O[C@@H]2O[C@H](CO)[C@@H](O[C@@H]3O[C@H](CO)[C@@H](O[C@@H]4O[C@H](CO)[C@@H](O[C@@H]5O[C@H](CO)[C@@H](O[C@@H]6O[C@H](CO)[C@@H](O)[C@H](O)[C@H]6NC(C)=O)[C@H](O)[C@H]5NC(C)=O)[C@H](O)[C@H]4NC(C)=O)[C@H](O)[C@H]3NC(C)=O)[C@H](O)[C@H]2NC(C)=O)[C@@H]1O` [chitin heptamers, N-acetylchitoheptaose], the “response of both genes to chitin oligomers and chitosan oligomers” value ([8]; chitin monomers to heptamers, tetramer and heptamer chitosan oligomers) was “strongest responses”, the “time up to which expression continued to increase” value ([8]; time-course after chitin heptamer treatment) was “up to 90 minutes” and the “increase in mRNA amount of both genes after elicitor treatment” value ([8]; time-course in cultured rice cells) was “Significant increases in mRNA amount were observed in both genes five minutes after treatment”.

For `C=C1[C@@H](O)[C@@H]2O[C@]3(CC[C@H](/C=C/[C@@H](C)[C@@H]4CC(C)=C[C@@]5(O[C@H](C[C@@](C)(O)C(=O)O)CC[C@H]5O)O4)O3)CC[C@H]2O[C@@H]1[C@@H](O)C[C@H](C)[C@H]1O[C@@]2(CCCCO2)CC[C@H]1C` [okadaic acid], the “inhibition of gibberellin's induction of α-amylase” value [5] is given as “specifically inhibited; also recorded: inhibited by okadaic acid”, the “inhibition … by GA3” value [6] is given as “inhibited almost completely” and the “inhibition … by chitin heptamer” value [7] is given as “hardly inhibited”.
